One compound from ChEMBL document CHEMBL1159303, “Isolation and structure determination of obyanamide, a novel cytotoxic cyclic depsipeptide from the marine cyanobacterium Lyngbya confervoides” (J Nat Prod, 2002) can be followed below.

One assay relates to LoVo. The experiment in a line: Cytotoxicity against human LoVo cells. In kind it is functional, cell-based.
A further assay concerns KB. Nature of the assay: Cytotoxicity against human KB cells. It is filed as functional, cell-based.

Molecules are shown by their SMILES. Converted amounts (≈) assume the structure as drawn.

By IC50 is commonly meant the concentration needed to halve the response being measured. Turning to `CC[C@H]1CC(=O)O[C@@H](C)C(=O)N(C)[C@@H](C(C)C)C(=O)N(C)[C@@H](Cc2ccccc2)C(=O)N[C@@H](C)c2nc(cs2)C(=O)N1` [OBYANAMIDE], the IC50 in the assay with LoVo is 3.14 µg/mL (≈ 5.24 µM); with KB, 0.58 µg/mL (≈ 0.967 µM).
